Consider one compound from article PMC9975698, “Hyperoside alleviates toxicity of β-amyloid via endoplasmic reticulum-mitochondrial calcium signal transduction cascade in APP/PS1 double transgenic Alzheimer's disease mice” (Redox Biology, 2023).

Data set [1] has as its system APP/PS1 mice. Kind of data set: Rotarod test. It counts as in vivo. To be noted: HYP nasal, every 3 days, 8 weeks. The protocol: All animal care and experimental procedures were performed in accordance with the “Institutional Animal Care and User Committee Guidelines” of the Macau University of Science and Technology. APP/PSEN1 (APP/PS1) mice (N000175) were purchased from the Nanjing Institute of Biomedical Sciences, Nanjing University, China, weighing 25 ± 5 g. The animals were housed in a temperature-controlled room with a 12 h light/dark cycle and given ad libitum food and water. Male mice were randomly divided into the following 6 experimental groups. (a) wild-type group (n = 6), (b) APP/PS1 group (n = 6), (c) HYP (20 mg/kg group) (n = 7), (d) HYP (40 mg/kg) group (n = 8), (e) HYP (80 mg/kg) group (n = 8) and (f) memantine (MEM) (10 mg/kg) positive control group (n = 8). HYP was dissolved in the solvent containing 10% DMSO, 40% PEG300 and 5% Tween-80 in PBS, and administrated via nasal injection for every 3 days with a volume of 0.5 μL/g of body weight for 8 consecutive weeks. The rotarod test was used to monitor motor coordination. The test consisted of placing the animal on a rotating rod with a rotational speed of 25 rpm (Yuyan, Shanghai, China) until the animal fell to the ground and the movement time was recorded. The test was performed three times with an interval of 300 s, and the mean of the test results were calculated.

Data set [2] relates to HT22 cells. Put plainly: Cytoplasmic calcium dynamics (FLIPR Calcium 6). The data set is classed as cell-based. The protocol:
Intracellular Ca^2+ dynamics were determined using the FLIPR Calcium 6 Assay Kit (Molecular Devices) according to the manufacturer's instructions. Briefly, HT22 was housed at 4 × 10^4 cells per well in a black-walled and clear-bottom 96 multi-well plate (Costar, MA, USA) and treated with Calcium 6 reagent for 1 h.

The next data set can be described thus: Solubility in water. It counts as physicochemical.
Data set [3] concerns Aβ oligomers, Aβ fibrils, Aβ (1–16). Kind of data set: Dot blot of Aβ forms in HT22 cells. It counts as cell-based. The method, then:
4 μL of prepared cell or animal sample protein solutions were dotted for adsorption onto methanol-pre-activated PVDF membranes and then blocked with 5% non-fat dry milk in Tris-buffered saline and Tween 20 for 1 h. The samples were incubated overnight at 4 °C with anti-amyloid fibril primary antibody [mOC87] (Abcam, MA, USA), anti-amyloid oligomer A11 (Invitrogen, CA, USA) or purified anti-β-amyloid (1–16) antibody (clone 6E10) (Biolegend, CA, USA) (1:1000), followed by HRP-conjugated secondary antibody. Protein bands were detected using Super Signal Sensitive ECL Western Blotting Detection Reagent (Beyotime, Beijing, China) and observed using a gel imaging device (Amersham Imager 800, GE, Tokyo, Japan).

Data set [4] deals with HT22 cells. Kind of data set: LIVE/DEAD cells analysis (calcein AM / PI). The data set is classed as cell-based. To be noted: aggregated Aβ-treated HT22, HYP co-treatment 24 h. The method, then:
According to the manufacturer's instructions, cell death was detected by Calcein AM Cell Viability Assay Kit (Beyotime, Shanghai, CHINA). 5 × 10^4 HT22 cells per well were seeded in 24-well plates, and HT22 was treated with HYP (20–80 μM) or PBS for 24 h. After overnight incubation, treated cells were stained with Calcein/Propidium Iodide (PI) dye for 20 min. Cells images were then visualized and captured by using Olympus IX71 fluorescence microscope with FITC and TRITC filters consecutively. Green and red fluorescence images were merged and analyzed with cellSens Standard 1.8.1 software. The percentage of cell death was quantified by dividing the number of dead cells (red fluorescence) by the total number of cells.

Data set [5] deals with HT22 cells. Put plainly: Real time mitochondrial membrane potential (rhodamine 123). The data set is classed as cell-based. To be noted: rhodamine 123-stained HT22 cells, Aβ 30 μM with HYP 20, 40, 80 μM. An excerpt: Disruption of RyR2 regulation in the ER mediates the most important signal transduction cascade responses associated with AD [24]. RyR2 channels are implicated in many cellular functions, particularly mitochondrial metabolism. As confirmed in previous section (Fig. 9G), the expression of mRNA for MCU was decreased in RyR2 knockdown cells. […] Therefore, the role of HYP in regulating Aβ-induced ER-mitochondrial Ca^2+ homeostasis and apoptosis were further validated. […] It was reported that mitochondrial calcium level affects cellular energy by activating oxidative metabolism, mitochondrial respiration and ATP synthesis. […] To further verify the result, the membrane potential was stained with a more sensitive dye, JC-1 (Fig. 10C). JC-1 is a dual-emission mitochondrial membrane potential sensing dye, which is accumulated and aggregated in polarized (normal) mitochondria with excitation and emission in the red spectrum at ∼590 nm. […] It is noteworthy that increased mitochondrial calcium influx can trigger apoptosis. To further explore the protective role of HYP in Aβ -induced neuronal cell death, HT22 cells were co-treated with Aβ aggregates and HYP for 24 h. The expression level of selected apoptotic markers including Bcl-2, Bax and cyto-c were detected by Western blot (Fig. 10E).

Data set [6] has as its system APP/PS1 mice. Put plainly: Dot blot of Aβ forms in cortex and hippocampus lysates. It counts as in vivo. The protocol:
4 μL of prepared cell or animal sample protein solutions were dotted for adsorption onto methanol-pre-activated PVDF membranes and then blocked with 5% non-fat dry milk in Tris-buffered saline and Tween 20 for 1 h. The samples were incubated overnight at 4 °C with anti-amyloid fibril primary antibody [mOC87] (Abcam, MA, USA), anti-amyloid oligomer A11 (Invitrogen, CA, USA) or purified anti-β-amyloid (1–16) antibody (clone 6E10) (Biolegend, CA, USA) (1:1000), followed by HRP-conjugated secondary antibody. Protein bands were detected using Super Signal Sensitive ECL Western Blotting Detection Reagent (Beyotime, Beijing, China) and observed using a gel imaging device (Amersham Imager 800, GE, Tokyo, Japan). All animal care and experimental procedures were performed in accordance with the “Institutional Animal Care and User Committee Guidelines” of the Macau University of Science and Technology. APP/PSEN1 (APP/PS1) mice (N000175) were purchased from the Nanjing Institute of Biomedical Sciences, Nanjing University, China, weighing 25 ± 5 g. The animals were housed in a temperature-controlled room with a 12 h light/dark cycle and given ad libitum food and water. Male mice were randomly divided into the following 6 experimental groups. […]

Regarding `O=c1c(O[C@@H]2O[C@H](CO)[C@H](O)[C@H](O)[C@H]2O)c(-c2ccc(O)c(O)c2)oc2cc(O)cc(O)c12` [HYP, Quercetin-3-O-β-D-galactopyranoside], in the data set on APP/PS1 mice [1], the “motor ability (time retained on the rotating rod)” value was “improved after HYP treatment”. Moreover, the “dynamic Ca2+ level induced by Aβ” value in the data set with HT22 cells [2] (HT22 cells, Aβ 30 μM + HYP 20–80 μM, calcium-containing HBSS) is recorded as “decreased the level of Ca^2+ in a dose dependent manner”; in the data set on HT22 cells [2] (HT22 cells, Aβ 30 μM + HYP 20–80 μM, calcium-free HBSS) it was “downregulated the Aβ -induced level of Ca^2+ in a dose-dependent manner”; in the data set with HT22 cells [2] (si-RyR2 HT22 cells, aggregated Aβ 30 μM + HYP 40 μM) it was “restored the Aβ-induced dishomeostasis of Ca^2+ in si-RyR2 HT22 cells (Fig. 9H) to a lesser extent”. Moreover, in “Solubility in water”, the solubility in water entry was “insoluble in water”. The “level of different form of Aβ” value in data set [3] (HT22 cells incubated with exogenous Aβ for 24 h) is listed as “lowered the level of different form of Aβ”. In data set [3] (HT22 cells without exogenous Aβ), the “endogenous level of Aβ oligomers, Aβ fibrils and total Aβ (1–16)” value was “lowered the endogenous level of Aβ Oligomers (A11), Aβ Fibrils (mOC87) and total Aβ (1–16) (6E10)”. In addition, the “cell viability by calcein AM / PI staining” value with HT22 cells [4] is given as “increase of cell viability”. For the same compound, the “mitochondrial membrane potential, real time” value in the data set with HT22 cells [5] is “attenuated the decrease of membrane potential triggered by Aβ”. The “level of oligomeric, fibrillar and total Aβ (dot blot)” value with APP/PS1 mice [6] was “reduced the level of both oligomeric and fibrillar form of Aβ, without altering the level of total Aβ”.
